Source: PMC10584882 (Communications Biology, 2023)
Several values for one entry are separate records, joined by “and”; a condition that tells them apart may be missing. Identical values can stand only once.

How the values were obtained:
[1] = Anti-viral experiment with Golden Syrian hamsters: body weight; format: in vivo, Golden Syrian hamsters (Mesocricetus auratus); conditions: for body weight, individual data: individual animals
SARS-CoV-2 = assay: Anti-viral experiment with Golden Syrian hamsters: histopathology scores; format: in vivo, Golden Syrian hamsters (Mesocricetus auratus); conditions: for trachea, epithelial damage (score) / bronchi, epithelial damage (score) / pulmonary parenchyma damage (score) / submucosal damage (score) / tissue repair (score) / vascular damage (score): 1 mg/kg s.c., individual hamsters; for trachea, epithelial damage (score): 0 normal, 1 mild, 2 moderate, 3 severe tracheitis; for bronchi, epithelial damage (score) / pulmonary parenchyma damage (score) / submucosal damage (score) / tissue repair (score) / vascular damage (score): sum of five lung lobes, maximum 15
SARS-CoV-2-GFP = tested on: SARS-CoV-2-GFP; parameters: method as in PMID 33811162; conditions: VERO E6 cell-based SARS-CoV-2 infection assays; cited from earlier work

In the case of CCCC[C@H](NC(=O)[C@H](CC(C)C)NC(=O)OCc1ccccc1)C(O)S(=O)(=O)[O-].[Na+] (stereo partly shown) [S-Calpeptin], the “body weight, individual data” value ([1]; G1 SARS-CoV-2 infected, 1 mg/kg s.c. daily, Day 1, 1 mg/kg) is reported as 142 g and 136 g and 131 g and 130 g and 132 g and 133 g and 125 g and 128 g and 123 g and 114 g and 117 g and 111 g, the “body weight, individual data” value ([1]; G1 SARS-CoV-2 infected, 1 mg/kg s.c. daily, Day 2, 1 mg/kg) is reported as 139 g and 141 g and 136 g and 131 g and 128 g and 132 g and 123 g and 127 g and 120 g and 111 g and 116 g and 108 g and the “body weight, individual data” value ([1]; G1 SARS-CoV-2 infected, 1 mg/kg s.c. daily, Day 3, 1 mg/kg) is reported as 138 g and 133 g and 132 g and 125 g and 128 g and 131 g and 123 g and 122 g and 126 g and 118 g and 121 g and 111 g and 115 g and 106 g. The “body weight, individual data” value ([1]; G1 SARS-CoV-2 infected, 1 mg/kg s.c. daily, Day 4, 1 mg/kg) was 126 g and 130 g and 121 g and 120 g and 118 g and 123 g and 111 g and 116 g and 104 g, the “body weight, individual data” value ([1]; G1 SARS-CoV-2 infected, 1 mg/kg s.c. daily, Day 5, 1 mg/kg) was 126 g and 129 g and 121 g and 119 g and 118 g and 111 g and 117 g and 104 g and the “body weight, individual data” value ([1]; G1 SARS-CoV-2 infected, 1 mg/kg s.c. daily, Day 6, 1 mg/kg) was 115 g and 118 g and 111 g and 116 g and 105 g. For the same molecule, the “body weight, individual data” value ([1]; G1 SARS-CoV-2 infected, 1 mg/kg s.c. daily, Day 7, 1 mg/kg) was 117 g and 121 g and 112 g and 118 g and 106 g, the “body weight, individual data” value ([1]; G4 mock infected (so in the source), Day 1) was 155 g and 138 g and 130 g and the “body weight, individual data” value ([1]; G4 mock infected (so in the source), Day 2) was 156 g and 137 g and 130 g. The “body weight, individual data” value ([1]; G4 mock infected (so in the source), Day 3) was 157 g and 138 g and 131 g, the “body weight, individual data” value ([1]; G4 mock infected (so in the source), Day 4) was 158 g and 140 g and 130 g and the “body weight, individual data” value ([1]; G4 mock infected (so in the source), Day 5) was 159 g and 139 g and 131 g. For the same molecule, the “body weight, individual data” value ([1]; G4 mock infected (so in the source), Day 6) was 160 g and 139 g and 130 g, the “body weight, individual data” value ([1]; G4 mock infected (so in the source), Day 7) was 162 g and 141 g and 131 g and the “body weight, average” value ([1]; SARS-CoV-2 infected hamsters, 1 mg/kg s.c. daily, day 1) was 96.7382 %, relative to day 0. The “body weight, average” value ([1]; SARS-CoV-2 infected hamsters, 1 mg/kg s.c. daily, day 2) was 95.2969 %, relative to day 0, the “body weight, average” value ([1]; SARS-CoV-2 infected hamsters, 1 mg/kg s.c. daily, day 3) was 94.3407 %, relative to day 0 and the “body weight, average” value ([1]; SARS-CoV-2 infected hamsters, 1 mg/kg s.c. daily, day 4) was 93.4383 %, relative to day 0. For the same molecule, the “body weight, average” value ([1]; SARS-CoV-2 infected hamsters, 1 mg/kg s.c. daily, day 5) was 93.2155 %, relative to day 0, the “body weight, average” value ([1]; SARS-CoV-2 infected hamsters, 1 mg/kg s.c. daily, day 6) was 93.1372 %, relative to day 0 and the “body weight, average” value ([1]; SARS-CoV-2 infected hamsters, 1 mg/kg s.c. daily, day 7) was 94.5983 %, relative to day 0. The “body weight, average” value ([1]; mock infected hamsters, 1 mg/kg s.c. daily, day 1) was 97.4975 %, relative to day 0, the “body weight, average” value ([1]; mock infected hamsters, 1 mg/kg s.c. daily, day 2) was 98.3232 %, relative to day 0 and the “body weight, average” value ([1]; mock infected hamsters, 1 mg/kg s.c. daily, day 3) was 98.7966 %, relative to day 0. For the same molecule, the “body weight, average” value ([1]; mock infected hamsters, 1 mg/kg s.c. daily, day 4) was 99.2826 %, relative to day 0, the “body weight, average” value ([1]; mock infected hamsters, 1 mg/kg s.c. daily, day 5) was 100.017 %, relative to day 0 and the “body weight, average” value ([1]; mock infected hamsters, 1 mg/kg s.c. daily, day 6) was 100.959 %, relative to day 0. The “body weight, average” value ([1]; mock infected hamsters, 1 mg/kg s.c. daily, day 7) was 101.896 %, relative to day 0, the “trachea, epithelial damage (score)” value (SARS-CoV-2; day 3 p.i., 1 mg/kg) was 0 and 1 and the “bronchi, epithelial damage (score)” value (SARS-CoV-2; day 3 p.i., 1 mg/kg) was 6 and 3 and 1 and 4. For the same molecule, the “pulmonary parenchyma damage (score)” value (SARS-CoV-2; day 3 p.i., 1 mg/kg) was 7 and 4 and 5 and 8, the “submucosal damage (score)” value (SARS-CoV-2; day 3 p.i., 1 mg/kg) was 7 and 2 and 1 and 5 and the “tissue repair (score)” value (SARS-CoV-2; day 3 p.i., 1 mg/kg) was 7 and 6 and 2 and 4. For the same molecule, the “vascular damage (score)” value (SARS-CoV-2; day 3 p.i., 1 mg/kg) was 7 and 8 and 3 and 9, the “trachea, epithelial damage (score)” value (SARS-CoV-2; day 5 p.i., 1 mg/kg) was 0 and 1 and 2 and the “bronchi, epithelial damage (score)” value (SARS-CoV-2; day 5 p.i.) was 2. The “pulmonary parenchyma damage (score)” value (SARS-CoV-2; day 5 p.i., 1 mg/kg) was 7 and 10 and 9, the “submucosal damage (score)” value (SARS-CoV-2; day 5 p.i., 1 mg/kg) was 8 and 11 and 9 and 10 and the “tissue repair (score)” value (SARS-CoV-2; day 5 p.i., 1 mg/kg) was 6 and 8 and 9 and 10. The “vascular damage (score)” value (SARS-CoV-2; day 5 p.i., 1 mg/kg) was 10 and 9 and 11 and 13, the “trachea, epithelial damage (score)” value (SARS-CoV-2; day 7 p.i., 1 mg/kg) was 0 and 1 and the “bronchi, epithelial damage (score)” value (SARS-CoV-2; day 7 p.i., 1 mg/kg) was 2 and 3 and 1. The “pulmonary parenchyma damage (score)” value (SARS-CoV-2; day 7 p.i., 1 mg/kg) was 8 and 7 and 10, the “submucosal damage (score)” value (SARS-CoV-2; day 7 p.i., 1 mg/kg) was 10 and 11 and 14 and the “tissue repair (score)” value (SARS-CoV-2; day 7 p.i., 1 mg/kg) was 15 and 14. For the same molecule, the “vascular damage (score)” value (SARS-CoV-2; day 7 p.i., 1 mg/kg) was 7 and 5 and 9, the “histopathology lesion scores versus untreated (in words)” value (SARS-CoV-2; infected hamsters, 1 mg/kg s.c. daily) was “no statistically significant differences in lesion scores” and the “lung vascular damage scores versus untreated (in words)” value (SARS-CoV-2; infected hamsters, 1 mg/kg s.c. daily, days 5 and 7 p.i.) was “lower scores for vascular damage compared to the untreated group on days 5 and 7 p.i., these results were not statistically significant”.
For CCCC[C@@H](C=O)NC(=O)[C@H](CC(C)C)NC(=O)OCc1ccccc1 [Calpeptin, reference compound], the “concentration giving high suppression of virus replication” value (SARS-CoV-2-GFP) is given as “below 100 nM”.
